Measured values reported in publication PMC6792352, “Limited Chemical Structural Diversity Found to Modulate Thyroid Hormone Receptor in the Tox21 Chemical Library” (Environmental Health Perspectives, 2019).
Structures can show the parent of a compound that is named as a salt.

Test: in vitro
Settings: rat, gh3-tre-luc cells

SMILES	CC50 at 24 h (AC50 (uM) modified / 1000) [µM]	other results
OC[C@H]1O[C@@H]2O[C@H]3[C@H](O)[C@@H](O)[C@@H](O[C@H]4[C@H](O)[C@@H](O)[C@@H](O[C@H]5[C@H](O)[C@@H](O)[C@@H](O[C@H]6[C@H](O)[C@@H](O)[C@@H](O[C@H]7[C@H](O)[C@@H](O)[C@@H](O[C@H]8[C@H](O)[C@@H](O)[C@@H](O[C@H]9[C@H](O)[C@@H](O)[C@@H](O[C@H]1[C@H](O)[C@H]2O)O[C@@H]9CO)O[C@@H]8CO)O[C@@H]7CO)O[C@@H]6CO)O[C@@H]5CO)O[C@@H]4CO)O[C@@H]3CO [gamma-Cyclodextrin]	> 30	–
CC(=O)OCc1ccccc1 [Benzyl acetate]	> 90	–
N[C@H]1C(O)O[C@H](CO)[C@@H](O)[C@@H]1O (some centres unmarked) [Glucosamine hydrochloride]	> 50	–
Nc1cc(S(=O)(=O)O)ccc1O [2-Amino-1-phenol-4-sulfonic acid]	> 90	–
CCCOC(C(=O)OC1CCN(C)CC1)(c1ccccc1)c1ccccc1 [Propiverine hydrochloride]	14.7	–
NC[C@H]1O[C@H](O[C@H]2[C@H](O)[C@@H](O[C@H]3O[C@H](CO)[C@@H](O)[C@H](N)[C@H]3O)[C@H](N)C[C@@H]2N)[C@H](N)C[C@@H]1O [Tobramycin]	> 20	–
O=C(CO)[C@@H](O)[C@H](O)[C@@H](O)CO [L-(-)-Sorbose]	> 50	–
CCC(Cc1c(I)cc(I)c(O)c1I)C(=O)O (centres unmarked) [Iophenoxic acid]	> 50	–
CC(C)OC(=O)c1cc(C(=O)OC(C)C)cc([N+](=O)[O-])c1 [Nitrothal-isopropyl]	> 90	–
CC[C@H](C)C(=O)O[C@H]1CCC=C2C=C[C@H](C)[C@H](CC[C@@H]3C[C@@H](O)CC(=O)O3)[C@H]21 [Mevastatin]	> 50	–
CC1(C)S[C@@H]2[C@H](NC(=O)COc3ccccc3)C(=O)N2[C@H]1C(=O)O [Penicillin VK]	> 90	–
c1ccc(B(c2ccccc2)c2ccccc2)cc1 [Triphenylborane]	> 90	–
C=CC(Cl)CCl (centres unmarked) [3,4-Dichloro-1-butene]	–	CC50 at 24 h (AC50 (uM) modified / 1000, Tox21_110001=Tox21_201361, viability, 1 nM T3 present, 24 h): > 90 µM
N#Cc1cc2ccccc2c2ccccc12 [9-Cyanophenanthrene]	> 90	–
COc1ccc(Nc2ccc(OC)cc2)cc1 [4,4'-Dimethoxydiphenylamine]	50.3	–
CO[C@@]12[C@H](COC(N)=O)C3=C(C(=O)C(C)=C(N)C3=O)N1C[C@@H]1N[C@@H]12 [Mitomycin C]	2.52	–
ClC1=C(Cl)[C@]2(Cl)[C@@H]3[C@@H]4C[C@@H]([C@H]5O[C@@H]45)[C@@H]3[C@@]1(Cl)C2(Cl)Cl [Dieldrin]	–	CC50 at 24 h (AC50 (uM) modified / 1000, Tox21_110001=Tox21_400029, viability, 1 nM T3 present, 24 h): 75.8 µM
Cc1oc(=O)oc1CN1CCN(c2cc3c(cc2F)c(=O)c(C(=O)O)c2n3C(C)S2)CC1 (centres unmarked) [Prulifloxacin]	> 50	–
Cc1ccc(N)cc1N [2,4-Diaminotoluene]	> 90	–
O=C(Nc1ccccc1)Nc1cnns1 [Thidiazuron]	–	CC50 at 24 h (AC50 (uM) modified / 1000, Tox21_110001=Tox21_300651, viability, 1 nM T3 present, 24 h): > 90 µM
CCCCCCCCCCCCSCCOCCOCCOCCOCCOCCOCCOCCOCCOCCO [Laureth 10s]	> 50	–

SMILES	CC50 at 24 h (AC50 (uM) modified / 1000) [µM]	other results
O=S(=O)(c1ccc(Cl)cc1)c1cc(Cl)c(Cl)cc1Cl [Tetradifon]	60.5	–
c1cc2ccc3ccc4ccc5cccc6c(c1)c2c3c4c56 [Benzo(g,h,i)perylene]	> 4	–
CCCCNC(C)(C)[PH](=O)O [Butafosfan]	> 50	–
CCN(CCC#N)c1ccccc1 [3-[Ethyl(phenyl)amino]propanenitrile]	> 90	–
CC(C)OC(=O)CCCCC(=O)OC(C)C [Diisopropyl adipate]	> 90	–
CNC(=NCCSCc1csc(N=C(N)N)n1)NC#N [Tiotidine]	> 50	–
C[Si](C)(CCCN)O[Si](C)(C)CCCN [3,3'-(1,1,3,3-Tetramethyldisiloxane-1,3-diyl)dipropan-1-amine]	> 90	–
O=[N+]([O-])/C=C/c1ccccc1 [(E)-beta-Nitrostyrene]	13.7	–
CC[N+](CC)(CC)CCOc1cccc(OCC[N+](CC)(CC)CC)c1OCC[N+](CC)(CC)CC [Gallamine triethiodide]	> 50	–
Cc1cc(C)c(O)c(C)c1 [2,4,6-Trimethylphenol]	> 90	–
O=C(Oc1ccccc1)Oc1ccccc1 [Diphenylcarbonate]	> 90	–
COC(=O)C(C)N(C(=O)c1ccco1)c1c(C)cccc1C (centres unmarked) [Furalaxyl]	> 90	–
CC(=O)C1C(=O)C=C(C)OC1=O (centres unmarked) [Dehydroacetic acid]	> 90	–
O=C1NC2CCCCN2C12CCN(CCCN1c3ccccc3CCc3ccc(Cl)cc31)CC2 (centres unmarked) [Mosapramine]	5.62	–
OCC1(O)OC[C@@H](O)[C@@H](O)[C@@H]1O (stereo partly drawn) [D-Fructose]	> 50	–
CCCCC(=O)Cl [Valeryl chloride]	> 90	–
C[C@]12CC[C@H]3[C@@H](CCC4=CC(=O)CC[C@@]43C)[C@@H]1CC[C@@H]2O [Testosterone]	–	CC50 at 24 h (AC50 (uM) modified / 1000, Tox21_110001=Tox21_200689, viability, 1 nM T3 present, 24 h): > 90 µM
CCCC[n+]1ccccc1C [1-Butyl-2-methylpyridinium bromide]	> 90	–
O=C1CCCO1 [4-Butyrolactone]	–	CC50 at 24 h (AC50 (uM) modified / 1000, Tox21_110001=Tox21_200490, viability, 1 nM T3 present, 24 h): > 90 µM
CCCCC#N [Valeronitrile]	> 90	–
Nc1ccccc1Cl [2-Chloroaniline]	–	CC50 at 24 h (AC50 (uM) modified / 1000, Tox21_110001=Tox21_200802, viability, 1 nM T3 present, 24 h): > 90 µM

SMILES	CC50 at 24 h (AC50 (uM) modified / 1000) [µM]	other results
CN1CCN(C2Cc3ccccc3Sc3ccc(Cl)cc32)CC1 (centres unmarked) [Octoclothepine maleate]	7.55	–
NCCCC[C@H](N)C(=O)O [Lysine]	> 50	–
CCCCC(O)c1ccccc1 (centres unmarked) [Fenipentol]	> 50	–
N[C@@H](Cc1c[nH]c2ccc(O)cc12)C(=O)O [L-5-Hydroxytryptophan]	> 90	–
O=C(O)c1ccccc1C(=O)OCc1ccccc1 [Monobenzyl phthalate]	> 90	–
COc1ccc2nc(NC(=O)Nc3ccccc3)sc2c1 [Frentizole]	> 50	–
CN1CCN(c2ccccc2/C=C2\SCCN(c3ccc(Cl)c(Cl)c3)C2=O)CC1 [Elzasonan]	8.33	–
Sc1ncnc2nc[nH]c12 [6-Mercaptopurine monohydrate]	> 90	–
NC(=O)/N=N/C(N)=O [Azodicarbonamide]	> 90	–
COC(=O)C(C)=O [Methylpyruvate]	> 90	–
Nc1cc(Cl)c(-c2cc(Cl)c(N)cc2Cl)cc1Cl [2,2',5,5'-Tetrachlorobenzidine]	13.7	–
CCCCC(O)(Cn1cncn1)c1ccc(Cl)cc1Cl (centres unmarked) [Hexaconazole]	54.6	–
CC(C)(C)C(=O)OCOC(=O)[C@@H]1N2C(=O)C[C@H]2S(=O)(=O)C1(C)C [Pivoxil Sulbactam]	> 50	–
CC(C[N+](C)(C)C)OC(N)=O (centres unmarked) [Bethanechol]	> 50	–
NCc1ccccc1CC(=O)N[C@@H]1C(=O)N2C(C(=O)O)=C(CSc3nnnn3CC(=O)O)CS[C@H]12 [Ceforanide]	> 20	–
COc1ccc(C(=CC(=O)N2CCOCC2)c2ccc(Cl)cc2)cc1OC [Dimethomorph]	> 90	–
CCCOC/C(=N\c1ccc(Cl)cc1C(F)(F)F)n1ccnc1 [Triflumizole]	58.4	–
CCCCCCCCCCCCCCCC(=O)OCC(COC(=O)CCCCCCCCCCCCCCC)OC(=O)CCCCCCCCCCCCCCC [Tripalmitin]	> 50	–
CC(C)CCOC(=O)c1ccccc1 [Isopentyl benzoate]	> 90	–
CCOC(=O)CC(O)(CC(=O)OCC)C(=O)OCC [Triethyl citrate]	> 90	–
